Patent US20240390490A1, “PHARMACEUTICAL COMPOSITIONS FOR THE TREATMENT OF CANCERS” (Rutgers, The State University of New Jersey, priority 2021, published 2024)

Legend:
[1] = test system: MDA-MB-231, MDA-MB-468, and T47D cells; test: Matrigel cell invasion assay; assay type: cell-based, human; details: 100 μM, 48 hours, Matrigel coated membrane
Description: The invasive and metastatic potential of cell lines was tested by transmigration through an extracellular matrix (ECM) by a previously described method (26). In brief, the upper chamber of the matrix in 24-well Matrigel invasion chamber plates (BD BioCoat™ Matrigel™ Chamber, BD Biosciences, San Jose, CA) was loaded with 5×10^4 cells in 500 μl of the appropriate medium (cell numbers established by preliminary experiments). After 24 hours, medium containing 1% FBS was used on both the lower and upper surfaces. One day later, the medium of the upper chamber was replaced with 500 μl medium containing 1% FBS without any drug treatment. The medium was replaced with medium containing 10% FBS and 25 ng/ml EGF in the lower chamber. The effect of beta-adrenergic and opioidergic drugs was tested by adding a 100 μM concentration of these drugs alone or in combination or vehicle alone in both lower and upper chambers. After 48 hours of incubation, the noninvasive cells that remained within the inserts were removed with a cotton swab. Cells that traversed through the Matrigel and the polycarbonate filter (8-μm pore size) attached to the lower surface were stained with 0.5% crystal violet for calculating the invasion index. Cells were visualized and photographed as described in the migration assay. The photographs were used to count invasive cells in Adobe Photoshop.

[2] = test system: MDA-MB-231, MDA-MB-468, and T47D cells; test: Transwell cell migration assay; assay type: cell-based, human; details: 100 μM, 12 hours
Description: Cell migration assay was performed following the procedure described previously (26). In brief, the upper insert chambers (8-μm pore polycarbonate membrane) were seeded with cells at a density of 5×10^4 cells (cell numbers established by preliminary experiments) per well in the appropriate serum-free medium. A 10% FBS-containing media was then added to the lower chamber to serve as a chemoattractant. […] The photographs were used to count the number of migrated cells in Adobe Photoshop.

MDA-MB-231 cells [3] = test: Cell cycle analysis (PI staining); assay type: cell-based, human; details: 100 μM
Description: Cell cycle analysis of breast cancer cells was carried out using propidium iodide (PI) staining protocol according to the manufacturer's instructions (Nexcelom Bioscience LLC, Lawrence, MA). […] Then, cells were harvested by trypsinization, centrifuged at 2000 rpm for 5 minutes, washed with PBS (pH 7.4), and fixed in ice cold 100% ethanol for 15 minutes. The cells were spun down and resuspended in 150 μl of PI-staining solution provided with the Cellometer PI Cell Cycle Kit. The PI-stained cells were then subjected to analysis in the Cellometer Vision instrument (Nexcelom Bioscience LLC) and the data was captured on Cellometer Vision CBA software (Nexcelom Bioscience LLC) and analyzed by FCS Express 4 software (Molecule Devices, Corp., Sunnyvale, CA). Differences in fluorescence intensity were used to determine the percentage of cells in each phase of the cell cycle and represented as histograms for control and drug-treated samples.

MDA-MB-231 cells [4] = test: Clonogenic (colony formation) assay; assay type: cell-based, human; details: 100 μM, 14 days
Description: The clonogenic assay was performed as previously described (25). Briefly, cells were suspended in culture media and were seeded into 6-well tissue culture plates at a density of 1,000 cells/well, allowed to adhere overnight, and treated with vehicle alone or a 100 μM concentration of beta-adrenergic and opioidergic drugs alone or in combination. Fresh medium and drugs were changed every 3 or 4 days for 14 days. At the end of the experiment, the cell colonies were stained with 0.5% crystal violet, subjected to image acquisition, and quantified in Adobe Photoshop (Adobe Systems, San Jose, CA). The crystal violet-stained cell colonies were extracted with 10% acetic acid and used for optical density (OD) measurements for determination of colony growth. Drug effects on these cells were determined in duplicate wells in three independent experiments.

[5] = test system: MDA-MB-231-cell-derived xenografts; test: Survival study of nude rats inoculated with MDA-MB-231 cells; assay type: in vivo, rat; details: Kaplan-Meier; control animals about 28 days
Description: For the following study and survival study, MDA-MB 231 cells (ATCC) were grown until about 90% confluence just 1 day before injection. On the day of injection, after checking cell viability with trypan blue, MDA-MB 231 cells were diluted in PBS at a final concentration of 1×10^7 cells/rat in 200-μl of PBS-50% Matrigel (BD Biosciences, San Jose, CA) mixture and injected subcutaneously (SC) into the right flank of the rats. […] Tumor shrinkage/growth was measured in animals daily and animal weights were measured every other day. […] Three dimensions of tumor were measured using electronic calipers, and tumor volumes were calculated by the formula L×W^2/2. The mean±SEM of tumor volume was calculated weekly for each experimental group, and the data are expressed as mean absolute tumor volume. After the animals were sacrificed, the subcutaneous tumors were excised intact from the rats to determine the tumor weight in grams and photographed to visualize differences in tumor morphology and compare size. A portion of the excised tumors was snap-frozen by immersion in liquid nitrogen and stored at −80° C. until further use.
The animals were treated with the same drug treatment regimens and euthanized as described previously. […] At the endpoint (prior to the onset of death), the animals were euthanized, and the survival curves were plotted in a Kaplan-Meier survival curve.

Structure (SMILES)	cell invasion [1]	cell migration [2]	number of cells in G0/G1 phase (MDA-MB-231 cells [3])	number of cells in G2/M phase (MDA-MB-231 cells [3])	number of cells in S phase (MDA-MB-231 cells [3])	colony formation (MDA-MB-231 cells [4])	mean life span (survival) [5]
CC1(C)SSC(C)(C)[C@@H](NC(=O)[C@@H](N)Cc2ccc(O)cc2)C(=O)NCC(=O)N[C@@H](Cc2ccccc2)C(=O)N[C@H]1C(=O)O [DPDPE, (D-Pen^2, D-Pen^5)-enkephalin]	decreased cell invasion	significant but moderate inhibitory effects	reduced	increased	no significant changes	moderate inhibition	40 days
O=C1CC[C@@]2(O)[C@H]3Cc4ccc(O)c5c4[C@@]2(CCN3CC2CC2)[C@H]1O5 [NTX, 17-(cyclopropylmethyl)-4,5α-epoxy-3,14-dihydroxymorphinan-6-one]	decreased cell invasion	significant but moderate inhibitory effects	reduced	increased	no significant changes	moderate inhibition	45 days
CC(C)NCC(O)COc1cccc2ccccc12 (stereo not drawn) [PRO, propranolol]	decreased cell invasion	significant but moderate inhibitory effects	reduced	increased	no significant changes	moderate inhibition	45 days
